From patent US9296741B2, “Bromodomain inhibitors” (priority 2012, dated 2016)

Experiments:
[1] = target: human BRD4 first bromodomain (BDI_K57-E168) (Homo sapiens (Human), UniProt O60885); test: TR-FRET bromodomain binding assay, BRD4 first bromodomain
[2] = Mouse liver microsome stability assay; assay type: in vitro ADME; settings: male, CD1, mouse, microsomes, pH 7.4
[3] = Rat liver microsome stability assay; assay type: in vitro ADME; settings: rat liver microsomes (male Sprague-Dawley), 0.5 μM test compound, 0.25 mg/mL microsomal protein, pH 7.4, 37° C.; read-out: Stability in rat liver microsomes (t1/2 in minutes)
[4] = system: breast cancer cell line MX-1; test: MX-1 cell line proliferation assay; assay type: cell-based, human; settings: Homo sapiens, MX1, 72 h; MX-1 cells, 3-day proliferation, Cell Titer Glo; read-out: Cellular proliferation: EC50
[5] = Human liver microsome stability assay; assay type: in vitro ADME; settings: both sexes, human, microsomes, pH 7.4
[6] = target: human BRD4 second bromodomain (BDII_E352-M457) (Homo sapiens (Human), UniProt O60885); test: TR-FRET bromodomain binding assay, BRD4 second bromodomain

| SMILES | Ki [1] | half-life at 0.5 μM [2] | half-life at 0.5 μM [3] | EC50 [4] | half-life at 0.5 μM [5] | Ki [6] |
| --- | --- | --- | --- | --- | --- | --- |
| Cn1cc(-c2cc(S(C)(=O)=O)ccc2OC[C@H]2CCC(=O)N2)c2cc[nH]c2c1=O [Example 226, 6-methyl-4-[5-(methylsulfonyl)-2-{[(2R)-5-oxopyrrolidin-2-yl]methoxy}phenyl]-1,6-dihydro-7H-pyrrolo[2,3-c]pyridin-7-one] | 141 nM | > 120 min | > 120 min | > 3000 nM | 105 min | 438 nM |
| Cn1cc(-c2cc(S(C)(=O)=O)ccc2OCCN2CCOCC2)c2cc[nH]c2c1=O [Example 227, 6-methyl-4-{5-(methylsulfonyl)-2-[2-(morpholin-4-yl)ethoxy]phenyl}-1,6-dihydro-7H-pyrrolo[2,3-c]pyridin-7-one] | 73.9 nM | > 120 min | 70 min | 658 nM | 50 min | 211 nM |
| Cn1cc(-c2cc(S(C)(=O)=O)ccc2OC[C@@H]2CCC(=O)N2)c2cc[nH]c2c1=O [Example 228, 6-methyl-4-[5-(methylsulfonyl)-2-{[(2S)-5-oxopyrrolidin-2-yl]methoxy}phenyl]-1,6-dihydro-7H-pyrrolo[2,3-c]pyridin-7-one] | 39 nM | > 120 min | 107 min | > 3000 nM | > 120 min | 108 nM |
| CC(COC(C)(C)C)Oc1ccc(S(C)(=O)=O)cc1-c1cn(C)c(=O)c2[nH]ccc12 (stereo not drawn) [Example 229, 4-{2-[(1-tert-butoxypropan-2-yl)oxy]-5-(methylsulfonyl)phenyl}-6-methyl-1,6-dihydro-7H-pyrrolo[2,3-c]pyridin-7-one] | 34.3 nM | 9 min | 33 min | 288 nM | 25 min | 61.3 nM |
| Cn1cc(-c2cc(NS(=O)(=O)C3CC3)ccc2Oc2ccc(F)cc2F)c2cc[nH]c2c1=O [Example 235, N-[4-(2,4-difluorophenoxy)-3-(6-methyl-7-oxo-6,7-dihydro-1H-pyrrolo[2,3-c]pyridin-4-yl)phenyl]cyclopropanesulfonamide] | 17.4 nM | 22 min | 49 min | 66.5 nM | 81 min | 7 nM |
| COCCS(=O)(=O)Nc1ccc(Oc2ccc(F)cc2F)c(-c2cn(C)c(=O)c3[nH]ccc23)c1 [Example 236, N-[4-(2,4-difluorophenoxy)-3-(6-methyl-7-oxo-6,7-dihydro-1H-pyrrolo[2,3-c]pyridin-4-yl)phenyl]-2-methoxyethanesulfonamide] | 14.5 nM | 15 min | 32 min | 25 nM | 33 min | 5.1 nM |
| Cn1cc(-c2cc(S(=O)(=O)C(F)(F)F)ccc2OCC2CC2)c2cc[nH]c2c1=O [Example 243, 4-{2-(cyclopropylmethoxy)-5-[(trifluoromethyl)sulfonyl]phenyl}-6-methyl-1,6-dihydro-7H-pyrrolo[2,3-c]pyridin-7-one] | 11.5 nM | 109 min | 20 min | 249 nM | > 120 min | 38.2 nM |
| Cn1cc(-c2cc(S(=O)(=O)C(F)(F)F)ccc2NCC2CC2)c2cc[nH]c2c1=O [Example 244, 4-{2-[(cyclopropylmethyl)amino]-5-[(trifluoromethyl)sulfonyl]phenyl}-6-methyl-1,6-dihydro-7H-pyrrolo[2,3-c]pyridin-7-one] | 23.2 nM | 87 min | 6 min | 254 nM | 53 min | 73.7 nM |
| CCS(=O)(=O)Nc1ccc(OCC2CC2)c(-c2cn(C)c(=O)c3[nH]ccc23)c1C [Example 251, N-[4-(cyclopropylmethoxy)-2-methyl-3-(6-methyl-7-oxo-6,7-dihydro-1H-pyrrolo[2,3-c]pyridin-4-yl)phenyl]ethanesulfonamide] | 63.1 nM | 44 min | 23 min | 573 nM | 118 min | 171 nM |
| CCNC(=O)c1cc2c(-c3cc(S(C)(=O)=O)ccc3Oc3ccc(F)cc3F)cn(C)c(=O)c2[nH]1 [Example 253, 4-[2-(2,4-difluorophenoxy)-5-(methylsulfonyl)phenyl]-N-ethyl-6-methyl-7-oxo-6,7-dihydro-1 H-pyrrolo[2,3-c]pyridine-2-carboxamide] | 20.4 nM | 90 min | 110 min | 145 nM | 72 min | 1.2 nM |
| Cn1cc(-c2cc(S(C)(=O)=O)ccc2Oc2ccc(F)cc2F)c2cc(C(=O)NCC(F)(F)F)[nH]c2c1=O [Example 254, 4-[2-(2,4-difluorophenoxy)-5-(methylsulfonyl)phenyl]-6-methyl-7-oxo-N-(2,2,2-trifluoroethyl)-6,7-dihydro-1H-pyrrolo[2,3-c]pyridine-2-carboxamide] | 79.6 nM | 91 min | > 120 min | 75.1 nM | 74 min | 8.7 nM |

The next compounds have a lower Ki [1] than those just listed; values first:

| Ki [1] | half-life at 0.5 μM [2] | half-life at 0.5 μM [3] | EC50 [4] | half-life at 0.5 μM [5] | Ki [6] | SMILES |
| --- | --- | --- | --- | --- | --- | --- |
| 10.1 nM | > 120 min | > 120 min | 246 nM | 68 min | 1.7 nM | Cn1cc(-c2cc(S(C)(=O)=O)ccc2Oc2ccc(F)cc2F)c2cc(C(N)=O)[nH]c2c1=O [Example 252, 4-[2-(2,4-difluorophenoxy)-5-(methylsulfonyl)phenyl]-6-methyl-7-oxo-6,7-dihydro-1H-pyrrolo[2,3-c]pyridine-2-carboxamide] |
| 6.9 nM | 5 min | 8 min | 7.6 nM | 6 min | 7 nM | Cn1cc(-c2cc(S(C)(=O)=O)ccc2OCC2CCCCC2)c2cc[nH]c2c1=O [Example 224, 4-[2-(cyclohexylmethoxy)-5-(methylsulfonyl)phenyl]-6-methyl-1,6-dihydro-7H-pyrrolo[2,3-c]pyridin-7-one] |
| 6.6 nM | 43 min | 24 min | 6.1 nM | 63 min | 5 nM | CC(C)COc1ccc(S(C)(=O)=O)cc1-c1cn(C)c(=O)c2[nH]ccc12 [Example 221, 6-methyl-4-[2-(2-methylpropoxy)-5-(methylsulfonyl)phenyl]-1,6-dihydro-7H-pyrrolo[2,3-c]pyridin-7-one] |
| 3.3 nM | 68 min | 101 min | 34.2 nM | 70 min | 8.1 nM | Cn1cc(-c2cc(S(C)(=O)=O)ccc2OCC2CCOC2)c2cc[nH]c2c1=O (stereo not drawn) [Example 217, 6-methyl-4-[5-(methylsulfonyl)-2-(tetrahydrofuran-3-ylmethoxy)phenyl]-1,6-dihydro-7H-pyrrolo[2,3-c]pyridin-7-one] |
| 3.2 nM | 89 min | 38 min | 28.7 nM | 79 min | 4.8 nM | Cn1cc(-c2cc(S(C)(=O)=O)ccc2OC2CCC2)c2cc[nH]c2c1=O [Example 213, 4-[2-(cyclobutyloxy)-5-(methylsulfonyl)phenyl]-6-methyl-1,6-dihydro-7H-pyrrolo[2,3-c]pyridin-7-one] |
| 3 nM | 2 min | 7 min | 35 nM | 3 min | 3.5 nM | Cn1cc(-c2cc(S(C)(=O)=O)ccc2OC2C3CC4CC(C3)CC2C4)c2cc[nH]c2c1=O (stereo not drawn) [Example 237, 6-methyl-4-{5-(methylsulfonyl)-2-[tricyclo[3.3.1.1^3,7]dec-2-yloxy]phenyl}-1,6-dihydro-7H-pyrrolo[2,3-c]pyridin-7-one] |
| 2.8 nM | 4 min | 5 min | 21.3 nM | 5 min | 1.2 nM | Cn1cc(-c2cc(S(C)(=O)=O)ccc2OC2CCCCCC2)c2cc[nH]c2c1=O [Example 220, 4-[2-(cycloheptyloxy)-5-(methylsulfonyl)phenyl]-6-methyl-1,6-dihydro-7H-pyrrolo[2,3-c]pyridin-7-one] |
| 2.6 nM | 7 min | 8 min | 23.6 nM | 6 min | 1.5 nM | Cn1cc(-c2cc(S(C)(=O)=O)ccc2OCC2C[C@@H]3CC[C@H]2C3)c2cc[nH]c2c1=O (stereo partly drawn) [Example 230, 4-{2-[(1S,4R)-bicyclo[2.2.1]hept-2-ylmethoxy]-5-(methylsulfonyl)phenyl}-6-methyl-1,6-dihydro-7H-pyrrolo[2,3-c]pyridin-7-one] |
| 2.4 nM | 8 min | 9 min | 10.5 nM | 27 min | 1.7 nM | Cn1cc(-c2cc(S(C)(=O)=O)ccc2OCC2CCCC2)c2cc[nH]c2c1=O [Example 214, 4-[2-(cyclopentylmethoxy)-5-(methylsulfonyl)phenyl]-6-methyl-1,6-dihydro-7H-pyrrolo[2,3-c]pyridin-7-one] |
| 0.83 nM | 11 min | 6 min | 1.9 nM | 12 min | 0.46 nM | Cn1cc(-c2cc(S(C)(=O)=O)ccc2OC2CCCCC2)c2cc[nH]c2c1=O [Example 215, 4-[2-(cyclohexyloxy)-5-(methylsulfonyl)phenyl]-6-methyl-1,6-dihydro-7H-pyrrolo[2,3-c]pyridin-7-one] |
